Measured values taken from patent US20240108683A1, “Method for Side Effect Reduction in the Use of Statins Via Physiologically Synthesized Glutathione” (Proimmune Co. LLC, priority 2014, published 2024).

Tests used:
oxidized lipid products = test: Human clinical trial, scavenging of oxidized lipid products; format: in vivo
Description: Moreover, the pharmacological effect of the composition of the instant invention as a replacement of the statin model was unexpected. […] Reason: the instant invention physiologically provides more rate-limiting L-cysteine available in the cell together with the other constituents of glutathione.

[1] = as compared to L-cysteine; cited from earlier work

## CC(=O)N[C@@H](CS)C(=O)O [N-acetylcysteine]
Oxidized lipid products
  scavenging of oxidized lipid products: 1%

## N[C@@H](CSSC[C@H](N)C(=O)O)C(=O)O [L-cystine]
[1]
  water solubility: water insoluble
